For data set [1], the system named is S282T HCV replicon (184R-A cells). Briefly: microbe, parasite or virus in culture. The note with it: Hepatitis C virus. On the procedure: 3. The 184R-A cell line was derived by culturing wild-type replicon cells in the presence of 1 to 5 μM of Compound 1 for >100 days.
(§1) 1. […] Huh-7 cells were seeded into column 1 of each plate at a similar density.
(§2) 2. […] Eight additional 3-fold serial dilutions of each compound were prepared from the 2× stock in assay medium. Final drug concentrations ranged from 100 to 0.015 μM.
(§3) 3. […] This setup was run in duplicate in each 96-well plate.
(§4) 4. Cells were incubated with inhibitors for three days at 37° C./5% CO2.
(§5) 1. After three days of drug treatment, media was removed from the plates via gentle tapping and the cells were fixed to the plates with 100 μL/well of 1:1 acetone:methanol.
(§6) 2. After one minute of incubation at room temperature, plates were washed three times with 100 μL/well of ELISA wash solution and then blocked with 150 μL/well of 10% FBS-TNE.
(§7) 3. After a one hour incubation at room temperature, plates were washed three times with 100 μL/well of ELISA wash solution, and then 100 μL/well of mouse anti-hepatitis C […] mAb (1 mg/mL stock diluted 1:1,500 in 10% FBS-TNE) was added.
(§8) 4. Following 2 hours of incubation at 37° C., plates were washed three times with 100 μL/well of ELISA wash solution, and then 100 μL/well of HRP-goat anti-mouse antibody (diluted 1:4,000 in 10% FBS-TNE) was added.
(§9) 4. After a one hour incubation period at 37° C., each plate was washed three times with 100 μL/well of ELISA wash solution. Color development was then initiated with 100 μL/well of OPD solution.
(§10) 5. After a 30 minute incubation period in the dark at room temperature, reactions were stopped by adding 100 μL of 2NH2SO4 to each well.
(§11) 6. The absorbance was measured at 490 nm on a Victor^3 V 1420 multilabel counter (Perkin Elmer). The percent inhibition of HCV replicon replication was calculated for each drug using an average of the duplicate wells.

Data set [2] relates to S282T HCV replicon (184R-D2 cells). Briefly: microbe, parasite or virus in culture. The note with it: Hepatitis C virus. As for the experimental part: as §1, §2, §3, §4, §5, §6, §7, §8, §9, §10, §11
The subject of data set [3] is wild-type HCV replicon (GS4.1 cells). The experiment in a line: microbe, parasite or virus in culture. The note with it: Hepatitis C virus. On the procedure:
as §1, §2, §3, §4, §5, §6, §7, §8, §9, §10, §11

The nature of data set [4]: Cytotoxicity (MTS assay), 184R-D2 cells. In kind it is cell-based. The settings on record: human, 184R-D2 cells (S282T), 184R-D2 (S282T), N = 3. As for the experimental part: (§12) Cells were plated and treated with inhibitors as described above.
Background: Tetrazolium dyes change colour on reduction, which living cells bring about.

Data set [5] is described as follows: Cytotoxicity (MTS assay), GS4.1 cells, Example 18. In kind it is cell-based, human. The note with it: human, GS4.1 cells (wild-type); GS4.1 (wild-type), MTS assay, N = 3. As for the experimental part:
as §12

The subject of data set [6] is GS4.1 cells. Briefly: Cytotoxicity (MTS assay), GS4.1 cells, Example 18. In kind it is cell-based, human. The note with it: wild-type or S282T replicon cells treated with up to 100 μM. As for the experimental part: as §12
For data set [7], the system named is HCV genotype 1b replicon (GS4.1 cells). The experiment in a line: In vitro combination of Compound 1 and ribavirin on HCV replicon (NS4A ELISA; MacSynergy II, CombiTool, CalcuSyn). The class given is cell-based. The note with it: Hepatitis C virus, 72 h, single-drug titration experiments, three days. On the procedure:
This setup was run in duplicate in each 96-well plate.
Cells were incubated with inhibitors for three days at 37° C./5% CO2.
After three days of drug treatment, media was removed from the plates via gentle tapping and the cells were fixed to the plates with 100 μL/well of 1:1 acetone:methanol.
After one minute of incubation at room temperature, plates were washed three times with 100 μL/well of ELISA wash solution and then blocked with 150 μL/well of 10% FBS-TNE.
After a one hour incubation period at 37° C., each plate was washed three times with 100 μL/well of ELISA wash solution. Color development was then initiated with 100 μL/well of OPD solution.
After a 30 minute incubation period in the dark at room temperature, reactions were stopped by adding 100 μL of 2NH2SO4 to each well.
The absorbance was measured at 490 nm on a Victor^3 V 1420 multilabel counter (Perkin Elmer).

Data set [8] relates to GS4.1 cells. Briefly: Cytotoxicity of Compound 1 and RBV on GS4.1 cells using MTS assay (combination study). The settings on record: three days, 0.6× to 1.5× EC50, alone or in combination. On the procedure: The readout of the assay was measured by the bioreduction of the yellow MTS tetrazolium compound to a purple formazan product. This conversion is mediated by NADPH or NADH in metabolically active cells and is therefore directly proportional to the number of live cells in a culture. Plates were setup as described above.
Cells were plated and treated with inhibitors using the drug matrix described above.
After three days of drug treatment, 20 μL of MTS was added to each well, and then plates were incubated at 37° C./5% CO2.

Data set [9] in a line: Cytotoxicity (MTS assay), 184R-A cells. In kind it is cell-based. The note with it: human, 184R-A cells (S282T), 184R-A (S282T), N = 3. On the procedure: as §12
Data set [10] has as its system HCV genotype 1b replicon (GS4.1 cells). Briefly: HCV replicon assay (NS4A ELISA). The class given is cell-based, hepatitis C virus. The settings on record: 3 days. As for the experimental part:
The biological activity of Compound 1, diastereomer 1 and diastereomer 2 was measured by monitoring expression of the NS4A protein by enzyme-linked immunosorbent assay (ELISA) and by luciferase assay as described below:
The HCV replicon assay measures the ability of a test compound to inhibit HCV replication in cell culture after 3 days of treatment in a human hepatoma cell line (Huh-7) bearing the HCV genotype 1b replicon (GS4.1 cells). The inhibition of HCV replication was measured by quantification of viral NS4A protein using an enzyme-linked immunosorbent assay (ELISA). […] Additionally, the replicon contains the neomycin phosphotransferase gene under the control of the HCV promoter (Source: Dr. Christoph Seeger, Fox Chase Cancer Center, Philadelphia, Pa.).
The NS4A ELISA assay is summarized as follows. Ninety-six-well tissue culture plates were seeded with GS4.1 cells. Antiviral compound solutions were made up freshly in medium as 2×-concentrated stocks. Eight additional 3-fold drug dilutions were prepared from these stocks in medium for a total of 9 dilutions. At least four hours after GS4.1 cells were seeded, drug treatment was initiated by adding one volume of each 2× concentrated drug dilution to one volume of cells/medium in the tissue culture plates. Cells were then incubated for 3 days at 37° C./5% CO2.
The media/compound was then removed from the plates and cells were fixed with acetone:methanol, washed three times with a wash solution, and then blocked for 1 hour with 10% fetal bovine serum in a balanced salt solution. Cells were washed three times and incubated with an anti-hepatitis C NS4A monoclonal antibody (Virogen Corp.) for 2 hours at 37° C. […] The reaction was stopped with diluted sulfuric acid (Mallinckrodt Chemicals) and absorbance measured on a Victor^3V 1420 multilabel counter (Perkin Elmer). EC50 values were calculated from dose response curves from the resulting best-fit equations determined by Microsoft Excel and XLfit 4.1 software.

The subject of data set [11] is Zluc cells. Briefly: Cytotoxicity assay (MTS), Zluc cells. In kind it is cell-based, human. On the procedure:
(§13) The cytotoxicity assay measures the viability of cells after treatment with a test compound for 3 days in either GS4.1 cells or Zluc cells. […] The cytotoxicity assay is summarized as follows. Ninety-six-well tissue culture plates were seeded with GS4.1 or Zluc cells. Antiviral compound solutions were made up freshly in medium as 2×-concentrated stocks. Eight additional 3-fold drug dilutions were prepared from these stocks in medium for a total of 9 dilutions. At least four hours after the cells were seeded, drug treatment was initiated by adding one volume of each 2×-concentrated drug dilution to one volume of cells/medium in the tissue culture plates. Cells were then incubated for 3 days at 37° C./5% CO2. After 3 days of treatment, the CellTiter 96® Aqueous One Solution cell proliferation assay (Promega) was performed by adding the MTS solution to each well. The plates were then incubated at 37° C./5% CO2 for 3.5 hours. Plates were then read in a Victor^3V 1420 multilabel counter (Perkin Elmer) and CC50 concentrations were determined using Microsoft Excel and XLfit 4.1 software.

Data set [12] deals with GS4.1 cells. Briefly: Cytotoxicity assay (MTS), GS4.1 cells. The class given is cell-based, human. The note with it: 3 days (NS4A-ELISA Assay). As for the experimental part:
as §13

For data set [13], the system named is HCV genotype 1b replicon (Zluc cells). The experiment in a line: HCV luciferase replicon assay. In kind it is cell-based, hepatitis C virus. The note with it: 3 days. As for the experimental part: The HCV luciferase replicon assay measures the ability of a test compound to inhibit HCV replication in cell culture after 3 days of treatment in a human hepatoma cell line (Huh-7) bearing the HCV genotype 1b replicon and a luciferase-neomycin phosphotransferase fusion gene. The inhibition of HCV replication was measured by quantification of luciferase protein expression. The HCV luciferase replicon was constructed by fusing a luciferase gene to the amino terminus of the neomycin phosphotransferase gene of the ZS11 HCV replicon. The ZS11 HCV replicon (Zhu Q, Guo J-T, and Seeger C, 2003) is derived from the SP1 replicon, but contains three cell culture-adapted mutations: E1202G (NS3), S22041 (NS5A), and D2254E (NS5A). These mutations allow for efficient in vitro replication. The luciferase reporter gene was amplified from the pGL4.13[luc2/SV40] vector (Promega Corp.). The replicon resulting from the luciferase-neomycin fusion (ZS11-luc) was stably-transfected into Huh-7 cells, yielding the Zluc cell line.
The luciferase replicon assay is summarized as follows: Solid white 96-well tissue culture plates (BD Falcon) were seeded with Zluc cells. Antiviral compound solutions were made up freshly in medium as 2×-concentrated stocks. Eight additional 3-fold drug dilutions were prepared from these stocks in medium for a total of 9 dilutions. At least four hours after Zluc cells were seeded, drug treatment was initiated by adding one volume of each 2×-concentrated drug dilution to one volume of cells/medium in the tissue culture plates. Cells were then incubated for 3 days at 37° C./5% CO2.
The media/compound was then removed from the plates and the ONE-glo Luciferase assay reagent (Promega) was added to each well. The assay plates were shaken for 3 minutes at room temperature and luciferase activity for each well was measured with a 1 sec read time on the Victor^3V multilabel counter using a 700 nm cut-off filter (Perkin Elmer). EC50 values were calculated from dose response curves from the resulting best-fit equations determined by Microsoft Excel and XLfit 4.1 software.
In general terms: A replicon is a self-replicating genome or part of one, used to study replication in cells.

The term EC50 denotes the concentration giving half of the maximal effect. What is called CC50 is the concentration that lowers cell viability or growth by half. A high value points to lower toxicity to the cells.

`NC(=O)c1ncn([C@@H]2O[C@H](CO)[C@@H](O)[C@H]2O)n1` [RBV, ribavirin, reference compound]: the 50% effective concentration (EC50) in data set [1] was 12.3 ± 1.9 µM; in data set [2], 17 ± 3.5 µM; in [3], 38 ± 2.8 µM; in [7] it was 21.8 ± 3.6 µM. For the same compound, the CC50 at 3 days in [4], in [5] and in data set [9] was greater than 100 µM in each case. Further, the “in vitro cytotoxicity (MTS)” value in data set [6] and in data set [8] was “no evidence of in vitro cytotoxicity” in each case.

On to `CC(C)(CO)C(=O)SCCOP(=O)(NCc1ccccc1)OC[C@H]1O[C@@H](n2cnc3c(=O)[nH]c(N)nc32)[C@](C)(O)[C@@H]1O` (single isomer, unassigned; diastereomer 2) [Diastereomer 2], for which the EC50 in data set [10] stood at 0.244 ± 0.098 µM; in data set [13], 0.0568 ± 0.0006 µM. In addition, the CC50 in [11] and in data set [12] was greater than 100 µM each time.

Source of the values: US20100003217A1, “Compounds and Pharmaceutical Compositions for the Treatment of Viral Infections” (priority 2008, published 2010).
